Test results: ChEMBL document CHEMBL1143045, “Tricyclic isoxazolines: identification of R226161 as a potential new antidepressant that combines potent serotonin reuptake inhibition and alpha2-adrenoceptor antagonism” (Bioorg Med Chem, 2007)
Blank lines part the entries; values can stand above or below the compound they belong to. Active and inactive are the calls of the source. The calls are words filed in the database; no cut-off is given here.

Columns and labels:
[1] = target: T1, Alpha-2B adrenergic receptor (Homo sapiens, UniProt P18089); test: Displacement of [3H]rawolscine from human cloned adrenergic alpha-2B receptor transfected in CHO cells; type: cell-based
T1 sequence (P18089 whole entry): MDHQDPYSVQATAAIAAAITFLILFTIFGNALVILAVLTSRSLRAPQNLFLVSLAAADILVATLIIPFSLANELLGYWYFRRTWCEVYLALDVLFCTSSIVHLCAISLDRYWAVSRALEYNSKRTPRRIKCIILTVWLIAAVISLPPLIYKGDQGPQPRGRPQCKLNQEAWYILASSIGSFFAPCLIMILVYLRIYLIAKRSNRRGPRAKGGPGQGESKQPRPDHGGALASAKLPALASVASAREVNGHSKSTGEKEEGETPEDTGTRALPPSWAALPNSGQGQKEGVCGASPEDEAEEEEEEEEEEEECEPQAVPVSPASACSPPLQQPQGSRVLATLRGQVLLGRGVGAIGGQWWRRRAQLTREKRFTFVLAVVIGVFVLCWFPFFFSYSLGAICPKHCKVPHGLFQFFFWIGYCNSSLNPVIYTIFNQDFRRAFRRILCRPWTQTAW

[2] = target: T2, Alpha-2C adrenergic receptor (Homo sapiens, UniProt P18825); test: Displacement of [3H]rawolscine from human cloned adrenergic Alpha-2C receptor transfected in CHO cells; type: cell-based
T2 sequence (P18825 whole entry): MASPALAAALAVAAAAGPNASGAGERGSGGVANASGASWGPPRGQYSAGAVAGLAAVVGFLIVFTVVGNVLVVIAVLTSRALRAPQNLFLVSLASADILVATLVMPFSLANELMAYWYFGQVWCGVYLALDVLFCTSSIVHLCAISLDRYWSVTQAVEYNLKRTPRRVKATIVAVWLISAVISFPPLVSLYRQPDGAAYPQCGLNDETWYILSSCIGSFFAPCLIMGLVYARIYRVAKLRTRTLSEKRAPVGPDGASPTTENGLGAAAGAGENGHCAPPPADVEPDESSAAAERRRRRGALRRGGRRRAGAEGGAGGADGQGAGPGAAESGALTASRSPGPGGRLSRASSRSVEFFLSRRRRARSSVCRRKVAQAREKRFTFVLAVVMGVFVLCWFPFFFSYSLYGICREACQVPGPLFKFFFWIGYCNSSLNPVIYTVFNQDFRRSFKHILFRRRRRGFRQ

[3] = target: Sodium-dependent serotonin transporter (Homo sapiens, UniProt P31645); test: Displacement of [3H]paroxetine from human cloned 5HTT receptor transfected in CHO cells; type: cell-based
Chain of Sodium-dependent serotonin transporter (P31645 whole entry): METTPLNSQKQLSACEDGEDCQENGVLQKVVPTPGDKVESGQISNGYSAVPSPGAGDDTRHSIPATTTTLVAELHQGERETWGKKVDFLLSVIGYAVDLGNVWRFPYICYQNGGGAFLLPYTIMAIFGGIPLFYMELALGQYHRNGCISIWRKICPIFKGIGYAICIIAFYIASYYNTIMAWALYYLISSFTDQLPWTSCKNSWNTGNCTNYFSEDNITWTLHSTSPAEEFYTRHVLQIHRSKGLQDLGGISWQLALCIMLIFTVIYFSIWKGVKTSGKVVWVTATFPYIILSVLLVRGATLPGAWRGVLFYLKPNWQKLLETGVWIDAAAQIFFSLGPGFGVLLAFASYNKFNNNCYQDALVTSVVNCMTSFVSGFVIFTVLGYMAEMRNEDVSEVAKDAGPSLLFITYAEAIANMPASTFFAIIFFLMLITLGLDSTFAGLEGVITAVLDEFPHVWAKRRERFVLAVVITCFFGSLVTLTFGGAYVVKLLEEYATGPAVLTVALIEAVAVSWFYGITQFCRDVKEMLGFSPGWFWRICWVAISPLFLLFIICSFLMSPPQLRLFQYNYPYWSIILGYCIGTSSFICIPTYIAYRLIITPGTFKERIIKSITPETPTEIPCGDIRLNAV

[4] = target: T3, Adrenergic receptor alpha-2 (Rattus norvegicus) (UniProt P22086+P19328+P22909); test: Reversal of medetomidine-induced loss of righting reflex in sc dosed Wistar rat after 1hr; type: functional, organism-based
[5] = target: T3, Adrenergic receptor alpha-2 (Rattus norvegicus); test: Reversal of medetomidine-induced loss of righting reflex in po dosed Wistar rat after 1hr; type: functional, organism-based
[6] = target: Sodium-dependent serotonin transporter (Rattus norvegicus) (UniProt P31652); test: Antagonism of p-chloroamphetamine-induced excitation in sc dosed Wistar rat after 1 hr; type: functional, organism-based
Chain of Sodium-dependent serotonin transporter (Rattus norvegicus) (P31652 whole entry): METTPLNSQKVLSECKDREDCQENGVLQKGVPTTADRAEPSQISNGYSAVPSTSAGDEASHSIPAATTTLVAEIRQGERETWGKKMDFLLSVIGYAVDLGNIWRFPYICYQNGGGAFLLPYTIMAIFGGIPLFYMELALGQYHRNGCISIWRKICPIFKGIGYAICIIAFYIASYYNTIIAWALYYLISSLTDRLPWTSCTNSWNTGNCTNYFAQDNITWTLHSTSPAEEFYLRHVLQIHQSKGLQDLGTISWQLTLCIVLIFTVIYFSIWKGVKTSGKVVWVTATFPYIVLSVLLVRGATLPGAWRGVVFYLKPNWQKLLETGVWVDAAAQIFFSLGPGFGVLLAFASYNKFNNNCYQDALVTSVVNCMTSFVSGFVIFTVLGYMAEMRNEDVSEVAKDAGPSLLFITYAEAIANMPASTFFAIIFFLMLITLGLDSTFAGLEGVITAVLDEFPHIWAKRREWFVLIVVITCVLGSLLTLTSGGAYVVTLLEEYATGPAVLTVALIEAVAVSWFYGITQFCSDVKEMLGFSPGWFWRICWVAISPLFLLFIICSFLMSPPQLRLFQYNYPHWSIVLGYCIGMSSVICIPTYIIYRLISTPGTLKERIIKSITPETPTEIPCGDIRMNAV

[7] = target: Sodium-dependent serotonin transporter (Rattus norvegicus) (UniProt P31652); test: Antagonism of p-chloroamphetamine-induced excitation in po dosed Wistar rat after 1 hr; type: functional, organism-based
[8] = target: Sodium-dependent serotonin transporter (Rattus norvegicus) (UniProt P31652); test: Antagonism of p-chloroamphetamine-induced 5HT depletion in sc dosed Wistar rat prefrontal cortex after 1 hr; type: functional, organism-based
[9] = target: Sodium-dependent serotonin transporter (Rattus norvegicus) (UniProt P31652); test: Antagonism of p-chloroamphetamine-induced 5HT depletion in po dosed Wistar rat prefrontal cortex after 1 hr; type: functional, organism-based
[10] = target: T4, Alpha-2A adrenergic receptor (Homo sapiens, UniProt P08913); test: Displacement of [3H]rawolscine from human cloned adrenergic alpha2A receptor transfected in CHO cells; type: cell-based
T4 sequence (P08913 whole entry): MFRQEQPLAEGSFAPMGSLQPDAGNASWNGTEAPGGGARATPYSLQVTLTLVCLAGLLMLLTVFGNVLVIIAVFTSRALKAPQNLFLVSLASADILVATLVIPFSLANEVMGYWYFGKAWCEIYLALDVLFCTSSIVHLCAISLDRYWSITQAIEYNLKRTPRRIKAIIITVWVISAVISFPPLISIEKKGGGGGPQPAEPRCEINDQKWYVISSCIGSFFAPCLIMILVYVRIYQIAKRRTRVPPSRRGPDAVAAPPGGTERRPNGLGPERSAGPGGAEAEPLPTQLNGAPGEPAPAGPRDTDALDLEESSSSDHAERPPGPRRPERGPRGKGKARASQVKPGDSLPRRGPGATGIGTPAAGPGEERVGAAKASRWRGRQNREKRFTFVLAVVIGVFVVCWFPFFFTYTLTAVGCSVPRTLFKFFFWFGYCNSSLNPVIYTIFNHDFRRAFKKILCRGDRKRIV

[11] = target: T5, Alpha-1A adrenergic receptor (Homo sapiens, UniProt P35348); test: Displacement of [3H]prazosin from human cloned alpha-1A receptor
T5 sequence (P35348 whole entry): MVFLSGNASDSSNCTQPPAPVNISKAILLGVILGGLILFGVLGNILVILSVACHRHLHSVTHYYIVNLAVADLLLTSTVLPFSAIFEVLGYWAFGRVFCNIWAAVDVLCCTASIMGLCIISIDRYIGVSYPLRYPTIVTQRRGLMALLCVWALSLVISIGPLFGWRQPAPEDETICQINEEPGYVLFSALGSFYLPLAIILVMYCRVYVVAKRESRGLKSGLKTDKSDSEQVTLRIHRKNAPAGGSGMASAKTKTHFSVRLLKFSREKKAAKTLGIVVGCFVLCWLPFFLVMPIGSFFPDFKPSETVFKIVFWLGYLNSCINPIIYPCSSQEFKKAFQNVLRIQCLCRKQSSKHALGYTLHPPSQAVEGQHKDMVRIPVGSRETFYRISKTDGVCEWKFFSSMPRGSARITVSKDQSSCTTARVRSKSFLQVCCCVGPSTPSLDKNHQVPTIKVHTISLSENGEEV

[12] = target: Histamine H1 receptor (Homo sapiens, UniProt P35367); test: Displacement of [3H]pyrilamine from human cloned histamine H1 receptor
Chain of Histamine H1 receptor (P35367 whole entry): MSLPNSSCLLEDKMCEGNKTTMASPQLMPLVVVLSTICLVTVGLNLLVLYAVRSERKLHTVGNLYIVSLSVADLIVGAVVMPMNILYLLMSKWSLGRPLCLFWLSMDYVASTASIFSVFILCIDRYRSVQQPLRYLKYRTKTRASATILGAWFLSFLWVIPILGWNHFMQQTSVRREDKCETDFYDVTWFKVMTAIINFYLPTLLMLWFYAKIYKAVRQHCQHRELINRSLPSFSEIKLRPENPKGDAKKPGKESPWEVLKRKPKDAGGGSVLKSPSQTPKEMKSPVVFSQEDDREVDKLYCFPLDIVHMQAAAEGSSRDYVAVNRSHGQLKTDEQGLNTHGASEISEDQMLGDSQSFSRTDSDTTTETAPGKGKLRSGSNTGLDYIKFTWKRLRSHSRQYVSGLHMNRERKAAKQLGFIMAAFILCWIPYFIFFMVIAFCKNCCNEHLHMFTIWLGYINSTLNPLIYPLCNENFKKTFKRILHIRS

[13] = target: D(3) dopamine receptor (Homo sapiens, UniProt P35462); test: Displacement of [125I]iodosulpiride from human cloned dopamine D3 receptor
Chain of D(3) dopamine receptor (P35462 whole entry): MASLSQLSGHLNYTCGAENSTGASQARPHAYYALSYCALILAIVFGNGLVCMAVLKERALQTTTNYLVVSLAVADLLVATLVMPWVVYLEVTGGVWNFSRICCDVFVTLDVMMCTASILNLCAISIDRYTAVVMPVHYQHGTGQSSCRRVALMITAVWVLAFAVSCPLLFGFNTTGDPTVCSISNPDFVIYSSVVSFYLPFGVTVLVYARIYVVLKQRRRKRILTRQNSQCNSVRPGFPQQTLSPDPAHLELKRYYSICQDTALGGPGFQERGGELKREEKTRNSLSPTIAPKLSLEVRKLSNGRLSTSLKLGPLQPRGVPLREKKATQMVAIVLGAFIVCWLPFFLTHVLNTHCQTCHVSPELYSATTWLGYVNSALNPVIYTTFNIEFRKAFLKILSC

[14] = target: Substance-P receptor (Homo sapiens, UniProt P25103); test: Displacement of [3H]substance P from human cloned NK1 receptor
Chain of Substance-P receptor (P25103 whole entry): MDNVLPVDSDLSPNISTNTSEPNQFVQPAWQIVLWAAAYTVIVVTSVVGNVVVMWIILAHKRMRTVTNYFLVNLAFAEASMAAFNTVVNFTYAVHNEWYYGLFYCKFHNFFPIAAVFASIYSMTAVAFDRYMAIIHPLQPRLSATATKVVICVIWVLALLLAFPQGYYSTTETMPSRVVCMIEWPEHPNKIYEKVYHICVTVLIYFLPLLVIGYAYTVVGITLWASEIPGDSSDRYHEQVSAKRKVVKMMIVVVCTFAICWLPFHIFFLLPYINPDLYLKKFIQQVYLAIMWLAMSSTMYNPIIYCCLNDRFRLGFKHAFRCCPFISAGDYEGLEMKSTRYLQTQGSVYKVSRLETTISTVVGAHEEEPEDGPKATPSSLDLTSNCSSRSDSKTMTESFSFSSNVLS

[15] = target: Sodium-dependent dopamine transporter (Rattus norvegicus, UniProt P23977); test: Displacement of [3H]WIN-35428 from rat DAT
Chain of Sodium-dependent dopamine transporter (P23977 whole entry): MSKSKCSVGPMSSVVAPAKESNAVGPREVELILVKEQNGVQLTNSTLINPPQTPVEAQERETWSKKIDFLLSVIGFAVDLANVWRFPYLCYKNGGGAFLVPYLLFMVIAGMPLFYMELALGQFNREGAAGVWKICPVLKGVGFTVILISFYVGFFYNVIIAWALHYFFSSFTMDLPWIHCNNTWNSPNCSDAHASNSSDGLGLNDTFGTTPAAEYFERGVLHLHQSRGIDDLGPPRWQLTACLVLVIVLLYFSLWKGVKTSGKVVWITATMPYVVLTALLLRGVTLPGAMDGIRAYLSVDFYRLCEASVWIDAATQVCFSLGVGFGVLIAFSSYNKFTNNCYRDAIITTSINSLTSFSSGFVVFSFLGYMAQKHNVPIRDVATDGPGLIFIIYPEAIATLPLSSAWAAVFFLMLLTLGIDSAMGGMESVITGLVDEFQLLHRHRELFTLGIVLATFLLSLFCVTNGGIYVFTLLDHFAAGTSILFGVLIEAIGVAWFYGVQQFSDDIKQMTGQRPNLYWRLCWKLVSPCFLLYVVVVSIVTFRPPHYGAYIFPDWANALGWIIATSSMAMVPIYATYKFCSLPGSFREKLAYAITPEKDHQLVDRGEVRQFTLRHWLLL

[16] = target: Norepinephrine transporter (Rattus norvegicus, UniProt Q9WTR4); test: Displacement of [3H]nisoxetine from rat NET
Chain of Norepinephrine transporter (Q9WTR4 whole entry): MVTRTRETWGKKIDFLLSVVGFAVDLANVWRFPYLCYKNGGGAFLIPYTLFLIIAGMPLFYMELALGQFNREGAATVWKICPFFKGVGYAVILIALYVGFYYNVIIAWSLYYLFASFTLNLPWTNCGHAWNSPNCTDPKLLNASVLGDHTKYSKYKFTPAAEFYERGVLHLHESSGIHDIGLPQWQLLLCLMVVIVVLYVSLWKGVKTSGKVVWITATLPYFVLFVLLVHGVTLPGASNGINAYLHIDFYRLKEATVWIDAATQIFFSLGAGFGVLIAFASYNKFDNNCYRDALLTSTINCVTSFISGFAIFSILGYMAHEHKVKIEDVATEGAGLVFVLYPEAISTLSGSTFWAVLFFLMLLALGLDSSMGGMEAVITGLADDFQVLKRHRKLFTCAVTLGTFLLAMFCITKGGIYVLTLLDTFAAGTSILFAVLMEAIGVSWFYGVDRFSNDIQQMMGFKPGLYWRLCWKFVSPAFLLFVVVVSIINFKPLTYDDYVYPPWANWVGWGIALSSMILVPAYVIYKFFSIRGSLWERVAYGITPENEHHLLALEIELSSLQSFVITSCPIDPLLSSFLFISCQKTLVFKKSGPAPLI

[17] = target: T6, Alpha-2B adrenergic receptor (Homo sapiens) (UniProt P18089); test: Agonist activity at human adrenergic alpha-2B receptor transfected in CHO cells by [35S]GTPgammaS binding assay; type: functional, cell-based
T6 sequence (whole entry): T1 sequence (P18089 whole entry)

[18] = target: T7, Alpha-2C adrenergic receptor (Homo sapiens) (UniProt P18825); test: Agonist activity at human adrenergic Alpha-2C receptor transfected in CHO cells by [35S]GTPgammaS binding assay; type: functional, cell-based
T7 sequence (whole entry): T2 sequence (P18825 whole entry)

[19] = target: T6, Alpha-2B adrenergic receptor (Homo sapiens); test: Antagonist activity at human alpha-2B receptor transfected in CHO cells by [35S]GTPgammaS binding assay; type: functional, cell-based
[20] = target: T7, Alpha-2C adrenergic receptor (Homo sapiens); test: Antagonist activity at human alpha-2C receptor transfected in CHO cells by [35S]GTPgammaS binding assay; type: functional, cell-based
[21] = target: T3, Adrenergic receptor alpha-2 (Rattus norvegicus); test: Receptor occupancy ex vivo by displacement of [3H]idazoxan binding from alpha-2 adrenoceptor in sc dosed Wistar rat entorhinal cortex after 1 hr; type: functional, organism-based
[22] = target: T3, Adrenergic receptor alpha-2 (Rattus norvegicus); test: Receptor occupancy ex vivo by displacement of [3H]idazoxan binding from alpha-2 adrenoceptor in po dosed Wistar rat entorhinal cortex after 1 hr; type: functional, organism-based
[23] = target: T3, Adrenergic receptor alpha-2 (Rattus norvegicus); test: Reversal of medetomidine-induced loss of righting reflex in sc dosed Wistar rat after 0.5 hrs; type: functional, organism-based
[24] = target: T3, Adrenergic receptor alpha-2 (Rattus norvegicus); test: Reversal of medetomidine-induced loss of righting reflex in sc dosed Wistar rat after 1 hr; type: functional, organism-based
[25] = target: T3, Adrenergic receptor alpha-2 (Rattus norvegicus); test: Reversal of medetomidine-induced loss of righting reflex in sc dosed Wistar rat after 2 hrs; type: functional, organism-based
[26] = target: T3, Adrenergic receptor alpha-2 (Rattus norvegicus); test: Reversal of medetomidine-induced loss of righting reflex in sc dosed Wistar rat after 4 hrs; type: functional, organism-based
[27] = target: T3, Adrenergic receptor alpha-2 (Rattus norvegicus); test: Reversal of medetomidine-induced loss of righting reflex in sc dosed Wistar rat after 8 hrs; type: functional, organism-based
[28] = target: T3, Adrenergic receptor alpha-2 (Rattus norvegicus); test: Reversal of medetomidine-induced loss of righting reflex in sc dosed Wistar rat after 16 hrs; type: functional, organism-based
[29] = target: T3, Adrenergic receptor alpha-2 (Rattus norvegicus); test: Reversal of medetomidine-induced loss of righting reflex in sc dosed Wistar rat after 32 hrs; type: functional, organism-based
[30] = target: T3, Adrenergic receptor alpha-2 (Rattus norvegicus); test: Reversal of medetomidine-induced loss of righting reflex in po dosed Wistar rat after 0.5 hrs; type: functional, organism-based
[31] = target: T3, Adrenergic receptor alpha-2 (Rattus norvegicus); test: Reversal of medetomidine-induced loss of righting reflex in po dosed Wistar rat after 1 hr; type: functional, organism-based
[32] = target: T3, Adrenergic receptor alpha-2 (Rattus norvegicus); test: Reversal of medetomidine-induced loss of righting reflex in po dosed Wistar rat after 2 hrs; type: functional, organism-based
[33] = target: T3, Adrenergic receptor alpha-2 (Rattus norvegicus); test: Reversal of medetomidine-induced loss of righting reflex in po dosed Wistar rat after 4 hrs; type: functional, organism-based
[34] = target: T3, Adrenergic receptor alpha-2 (Rattus norvegicus); test: Reversal of medetomidine-induced loss of righting reflex in po dosed Wistar rat after 8 hrs; type: functional, organism-based
[35] = target: T3, Adrenergic receptor alpha-2 (Rattus norvegicus); test: Reversal of medetomidine-induced loss of righting reflex in po dosed Wistar rat after 16 hrs; type: functional, organism-based

- ED50 [4]: 2.7 mg/kg
- ED50 [5]: 1.3 mg/kg
- Activity [17]: inactive
- Activity [18]: inactive
- Kb [19]: 1.4 nM
- Kb [20]: 0.91 nM
- ED50 [21]: 2.6 mg/kg
- ED50 [22]: 8.8 mg/kg
- ED50 [23]: 1.2 mg/kg
- ED50 [24]: 2.7 mg/kg
- ED50 [25]: 4.1 mg/kg
- ED50 [26]: 2.3 mg/kg
- ED50 [27]: 4.7 mg/kg
- ED50 [28]: 7.1 mg/kg
- ED50 [29]: > 10 mg/kg
- ED50 [30]: 1 mg/kg
- ED50 [31]: 1.3 mg/kg
- ED50 [32]: 2.7 mg/kg
- ED50 [33]: 3.6 mg/kg
- ED50 [34]: 9.3 mg/kg
- ED50 [35]: 25 mg/kg
SMILES: COc1cc2c(cc1OC)C1=NO[C@@H](CN3CCN(C/C(C)=C/c4ccc(F)cc4)CC3)[C@@H]1CO2 (stereo in doubt; form 1) [listing 2 of 2 here]

- Ki [10]: 28 nM
- Ki [1]: 21 nM
- Ki [2]: 10 nM
SMILES: COc1cc2c(cc1OC)C1=NO[C@@H](CN3CCN(C/C(C)=C/c4ccc(F)cc4)CC3)[C@@H]1CO2 (stereo in doubt; form 2) [listing 1 of 2 here]

- ED50 [4]: 5 mg/kg
SMILES: COc1cc2c(cc1OC)C1=NO[C@@H](CN3CCN(C/C(C)=C/c4ccc(F)cc4)CC3)[C@@H]1CO2 (stereo in doubt; form 2) [listing 2 of 2 here]

The remaining lines, values behind:

SMILES: COc1cc2c(cc1OC)C1=NOC(CN3CCN(C/C(C)=C/c4ccccc4)CC3)C1CN2 (single isomer, unassigned; (+)) [listing 1 of 2 here]
- Ki [1]: 4.5 nM
- Ki [2]: 0.93 nM
- Ki [3]: 79 nM

SMILES: COc1cc2c(cc1OC)C1=NOC(CN3CCN(C/C(C)=C/c4ccccc4)CC3)C1CN2 (single isomer, unassigned; (+)) [listing 2 of 2 here]
- ED50 [4]: 0.08 mg/kg
- ED50 [5]: 0.63 mg/kg
- ED50 [6]: > 10 mg/kg
- ED50 [7]: > 10 mg/kg
- ED50 [8]: 4.1 mg/kg

SMILES: COc1cc2c(cc1OC)C1=NOC(CN3CCN(C/C=C/c4ccc(F)cc4)CC3)C1CO2 (single isomer, unassigned; (+))
- ED50 [4]: 3.1 mg/kg
- ED50 [5]: 3.5 mg/kg
- ED50 [6]: 0.05 mg/kg
- ED50 [7]: 0.32 mg/kg
- ED50 [8]: 0.03 mg/kg
- ED50 [9]: 0.05 mg/kg

SMILES: COc1cc2c(cc1OC)C1=NOC(CN3CCN(C/C(C)=C/c4ccccc4)CC3)C1CN2 (single isomer, unassigned; (-)) [listing 1 of 2 here]
- Ki [1]: 26 nM
- Ki [2]: 8.3 nM
- Ki [3]: 24 nM

SMILES: COc1cc2c(cc1OC)C1=NOC(CN3CCN(C/C(C)=C/c4ccccc4)CC3)C1CN2 (single isomer, unassigned; (-)) [listing 2 of 2 here]
- ED50 [4]: > 10 mg/kg
- ED50 [5]: > 10 mg/kg
- ED50 [6]: 0.32 mg/kg
- ED50 [7]: 3.2 mg/kg
- ED50 [8]: 0.81 mg/kg

SMILES: COc1cc2c(cc1OC)C1=NO[C@@H](CN3CCN(C/C(C)=C/c4ccc(F)cc4)CC3)[C@@H]1CO2 (stereo in doubt; form 1) [listing 1 of 2 here]
- Ki [10]: 3.1 nM
- Ki [1]: 1.5 nM
- Ki [2]: 0.27 nM
- Ki [11]: 125 nM
- Ki [12]: 74 nM
- Ki [13]: 375 nM
- Ki [14]: 310 nM
- Ki [15]: 583 nM
- Ki [16]: 70 nM
